These results are taken from patent US4539329A, “7'-Trifluoromethyl-spiro[imidazolidine-4,3'-indoline]-2,2',5-triones as aldose reductase inhibitors” (Imperial Chemical Industries, plc, priority 1982, dated 1985).

In the assay the target is T1, aldose reductase (Bos taurus, UniProt P16116).
T1 construct: purified aldose reductase is isolated in known manner from bovine lenses; from tissue; host or cells: bovine lens
The experiment in a line: in vitro inhibition of purified aldose reductase from bovine lenses (reduction of glucose to sorbitol, spectrophotometric). Particulars: aldose reductase preparation obtained from bovine lenses; read-out: concentration producing a 50% reduction in the conversion of glucose to sorbitol. Type of assay: biochemical. Here is the method: Thus, purified aldose reductase is isolated in known manner from bovine lenses. The percentage inhibition of this enzyme's ability in vitro to reduce aldoses to polyhydric alcohols, and particularly to reduce glucose to sorbitol, caused by a test compound is then determined using standard spectrophotometric methods. In this test the compounds of formula I in general show significant inhibition of the enzyme aldose reductase at a concentration of about 10^-8 M.

On to `O=C1NC(=O)C2(N1)C(=O)N(Cc1ccc(Br)cc1F)c1c(C(F)(F)F)cccc12` (racemic) [A, 1'-(4-bromo-2-fluorobenzyl)-7'-(trifluoromethyl)-spiro[imidazolidine-4,3'-indoline]-2,2',5-trione], for which the IC50 was found to be 10.5 nM.
